Laboratory results published in patent publication US9695155B2, “Herbicidal substituted pyrimidinyloxy benzene compounds” (E. I. DU PONT DE NEMOURS AND COMPANY, priority 2013, dated 2017).

How the values were obtained:
large (Lg) crabgrass = test: Test A postemergence; format: in vivo, Digitaria sanguinalis
How it was run: (§1)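 Compounds in non-phytotoxic solvent with surfactant applied as soil spray preemergence, or postemergence to plants 2-10 cm at one- to two-leaf stage, in loam/sand. After approximately 10 days in greenhouse, injury rated visually versus untreated controls, 0 (no effect) to 100 (complete control).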

waterhemp = test: Test C preemergence; format: in vivo, Amaranthus rudis; conditions: for Waterhemp plant response rating: preemergence
Text: (§2) Seeds of plant species selected from blackgrass (Alopecurus myosuroides), Italian ryegrass (Lolium multiflorum), wheat, winter (winter wheat, Triticum aestivum), galium (catchweed bedstraw, Galium aparine), corn (Zea mays), large (Lg) crabgrass (Digitaria sanguinalis), giant foxtail (Setaria faberii), johnsongrass (Sorghum halepense), lambsquarters (Chenopodium album), morningglory (Ipomoea coccinea), yellow nutsedge (Cyperus esculentus), pigweed (Amaranthus retroflexus), ragweed (common ragweed, Ambrosia elatior), soybean (Glycine max), barnyardgrass (Echinochloa crus-galli), oilseed rape (Brassica napus), waterhemp (common waterhemp, Amaranthus rudis), kochia (Kochia scoparia), wild oat (Avena fatua), surinam grass (Brachiaria decumbens), foxtail, green (green foxtail, Setaria viridis), goosegrass (Eleusine indica), bromegrass, downy (downy bromegrass, Bromus tectorum), nightshade (eastern black nightshade, Solanum ptycanthum), cocklebur (common cocklebur, Xanthium strumarium), cupgrass, woolly (woolly cupgrass, Eriochloa villosa), bermudagrass (Cynodon dactylon), sunflower, (common oilseed sunflower, Helianthus annuus), Russian thistle (Salsola kali), and velvetleaf (Abutilon theophrasti) were planted into a blend of loam soil and sand and treated preemergence with test chemicals formulated in a non-phytotoxic solvent mixture which included a surfactant.
(§3) At the same time, plants selected from these crop and weed species and also barley, winter (winter barley, Hordeum vulgare), windgrass (Apera spica-venti), chickweed (common chickweed, Stellaria media), deadnettle (henbit deadnettle, Lamium amplexicaule), and canarygrass (littleseed canarygrass, Phalaris minor) were planted in pots containing Redi-Earth® planting medium (Scotts Company, 14111 Scottslawn Road, Marysville, Ohio 43041) comprising spaghnum peat moss, vermiculite, wetting agent and starter nutrients and treated with postemergence applications of test chemicals formulated in the same manner. Plants ranged in height from 2 to 18 cm (1- to 4-leaf stage) for postemergence treatments. Treated plants and controls were maintained in a greenhouse for 13 to 15 days, after which time all species were compared to controls and visually evaluated. Plant response ratings, summarized in Table C, are based on a scale of 0 to 100 where 0 is no effect and 100 is complete control. A dash (-) response means no test result.

johnsongrass = test: Test C preemergence; format: in vivo, Sorghum halepense; conditions: for Johnsongrass plant response rating: preemergence
Text: as §2, §3

galium = test: Test C preemergence; format: in vivo, Galium aparine; conditions: for Galium plant response rating: preemergence; for Plant response rating, Galium: Preemergence, scale 0 to 100, 0 no effect, 100 complete control
Text: as §2, §3

Heteranthera limosa = test: Test B flooded paddy test; format: in vivo; conditions: Flood, 250 g ai/ha; 0 to 100 scale where 0 is no effect and 100 is complete control
How it was run: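 Scores from 0 (no effect) to 100 (complete control) are visual comparisons with controls, taken 13 to 15 days after compound was applied into floodwater 3 cm deep around 2-leaf plants.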

corn [1] = test: Test A preemergence; format: in vivo, Zea mays; conditions: for Corn plant response rating: 500 g ai/ha
How it was run: as §1

wheat, winter = test: Test C preemergence; format: in vivo, Triticum aestivum; conditions: for Wheat plant response rating: preemergence
Text: as §2, §3

pigweed = test: Test A preemergence; format: in vivo, Amaranthus retroflexus
How it was run: as §1

wheat = test: Test A postemergence; format: in vivo, Triticum aestivum
How it was run: as §1

giant foxtail = test: Test A postemergence; format: in vivo, Setaria faberii
How it was run: as §1

corn [2] = test: Test C postemergence; format: in vivo, Zea mays; conditions: for Plant response rating (0 to 100), Corn: 0 is no effect, 100 is complete control
How it was run: (§4)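 Injury was assessed visually against controls 13 to 15 days after application, with 0 meaning no effect and 100 full control; missing entries are shown as a dash. Preemergence sprays hit seeded loam–sand soil, postemergence sprays hit 1- to 4-leaf plants.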

blackgrass = test: Test A postemergence; format: in vivo, Alopecurus myosuroides
How it was run: as §1

Italian ryegrass = test: Test C postemergence; format: in vivo, Lolium multiflorum; conditions: for Plant response rating (0 to 100), Ryegrass, Italian: 0 is no effect, 100 is complete control
How it was run: as §4

kochia [3] = test: Test A preemergence; format: in vivo, Kochia scoparia
How it was run: as §1

kochia [4] = test: Test A postemergence; format: in vivo, Kochia scoparia
How it was run: as §1

[5] = 125 g ai/ha, 0 to 100 scale where 0 is no effect and 100 is complete control
[6] = 500 g ai/ha, 0 to 100 scale where 0 is no effect and 100 is complete control
[7] = 16 g ai/ha, scale 0 to 100 (0 no effect, 100 complete control)
[8] = 62 g ai/ha, scale 0 (no effect) to 100 (complete control)
[9] = 125 g ai/ha, scale 0 (no effect) to 100 (complete control)
[10] = 0 to 100 scale where 0 is no effect and 100 is complete control
[11] = 31 g ai/ha, postemergence, visual rating, scale 0 to 100 (0 no effect, 100 complete control), 13 to 15 days
[12] = 31 g ai/ha, 0 to 100 scale, 0 no effect, 100 complete control
[13] = 31 g ai/ha, 0 to 100 scale where 0 is no effect and 100 is complete control, visual, approximately 10 days
[14] = 125 g ai/ha, postemergence, visual rating, scale 0 to 100 (0 no effect, 100 complete control)
[15] = Postemergence, 62 g ai/ha, scale 0 to 100 (0 no effect, 100 complete control)
[16] = 1000 g ai/ha, 0 to 100 scale, 0 no effect, 100 complete control
[17] = 1000 g ai/ha, 0 to 100 scale, 0 no effect, 100 complete control, approx. 10 days
[18] = 125 g ai/ha, 0 to 100 scale, 0 no effect, 100 complete control
[19] = 31 g ai/ha, scale 0 to 100 (0 no effect, 100 complete control)
[20] = Preemergence, 62 g ai/ha, scale 0 to 100, 0 no effect, 100 complete control

## FC(F)c1cccc(Oc2ncc(Cl)cn2)c1-n1cc(C(F)(F)F)cn1 [Compound 170]
Large (Lg) crabgrass; [5]
  Crabgrass, Large plant response rating: 70
Large (Lg) crabgrass; [6]
  Plant response rating, Crabgrass, Large: 90
waterhemp; [7]
  Waterhemp plant response rating: 100
waterhemp; [8]
  Waterhemp plant response rating: 100
waterhemp; [9]
  Waterhemp plant response rating: 100
johnsongrass; [7]
  Johnsongrass plant response rating: 0
johnsongrass; [8]
  Johnsongrass plant response rating: 70
johnsongrass; [9]
  Johnsongrass plant response rating: 85
galium; [7]
  Galium plant response rating: 95
galium; [8]
  Galium plant response rating: 100
galium; [9]
  Galium plant response rating: 100
galium; 31 g ai/ha
  Plant response rating, Galium: 98
Heteranthera limosa
  Plant response rating, Ducksalad: 95
Corn [1]; [5]
  Plant response rating, Corn: 0
Corn [1]; [10]
  Corn plant response rating: 20
wheat, winter; [7]
  Wheat plant response rating: 0
wheat, winter; [8]
  Wheat plant response rating: 20
wheat, winter; [9]
  Wheat plant response rating: 60
pigweed; 125 g ai/ha
  Pigweed plant response rating (0 to 100 scale): 100
pigweed; [6]
  Pigweed plant response rating: 100
wheat; [5]
  Wheat plant response rating: 30
wheat; [6]
  Plant response rating, Wheat: 70
Giant foxtail; [5]
  Foxtail, Giant plant response rating: 70
Giant foxtail; [6]
  Plant response rating, Foxtail, Giant: 90

## FCc1cccc(Oc2ncc(F)cn2)c1-n1cc(I)cn1 [Compound 152]
Corn [2]; 4 g ai/ha, postemergence
  Plant response rating (0 to 100), Corn: 0
Corn [2]; 8 g ai/ha, postemergence
  Plant response rating (0 to 100), Corn: 0
Corn [2]; 16 g ai/ha, postemergence
  Plant response rating (0 to 100), Corn: 5
Corn [2]; [11]
  Corn plant response rating: 5
blackgrass; [12]
  Plant response rating, Blackgrass: 50
blackgrass; [5]
  Blackgrass plant response rating: 90
Italian ryegrass; 8 g ai/ha, postemergence
  Plant response rating (0 to 100), Ryegrass, Italian: 0
Italian ryegrass; 16 g ai/ha, postemergence
  Plant response rating (0 to 100), Ryegrass, Italian: 0
Italian ryegrass; [11]
  Ryegrass, Italian plant response rating: 0
Heteranthera limosa
  Plant response rating, Ducksalad: 60
pigweed; [13]
  Plant response rating, Pigweed: 90
pigweed; [5]
  Plant response rating, Pigweed: 90
Kochia [3]; [13]
  Plant response rating, Kochia: 20
Kochia [3]; [5]
  Plant response rating, Kochia: 90
Kochia [4]; [12]
  Plant response rating, Kochia: 20
Kochia [4]; [5]
  Kochia plant response rating: 80
wheat; [12]
  Plant response rating, Wheat: 20
wheat; [5]
  Wheat plant response rating: 40
Giant foxtail; [12]
  Plant response rating, Foxtail, Giant: 0
Giant foxtail; [5]
  Foxtail, Giant plant response rating: 40

## FCc1cn(-c2ccccc2Oc2ncc(Cl)cn2)nn1 [Compound 123]
Corn [2]; 16 g ai/ha, postemergence
  Plant response rating (0 to 100), Corn: 0
Corn [2]; [14]
  Plant response rating, Corn: 5
Corn [2]; [15]
  Plant response rating, Corn: 5
blackgrass; [16]
  Plant response rating, Blackgrass: 90
Italian ryegrass; 16 g ai/ha, postemergence
  Plant response rating (0 to 100), Ryegrass, Italian: 0
Italian ryegrass; [14]
  Plant response rating, Ryegrass, Italian: 0
Italian ryegrass; [15]
  Plant response rating, Ryegrass, Italian: 0
Heteranthera limosa
  Plant response rating, Ducksalad: 80
pigweed; [17]
  Pigweed plant response rating: 100
Kochia [3]; [17]
  Kochia plant response rating: 100
Kochia [4]; [16]
  Plant response rating, Kochia: 100
wheat; [16]
  Plant response rating, Wheat: 70
Giant foxtail; [16]
  Plant response rating, Foxtail, Giant: 90

## NC(=S)c1cccc(Oc2ncc(Cl)cn2)c1-n1cc(Cl)cn1 [Compound 292]
Large (Lg) crabgrass; [18]
  Plant response rating, Crabgrass, Large: 60
Large (Lg) crabgrass; [6]
  Plant response rating, Crabgrass, Large: 90
waterhemp; [7]
  Waterhemp plant response rating: 100
waterhemp; [19]
  Waterhemp plant response rating: 100
waterhemp; [9]
  Waterhemp plant response rating: 100
waterhemp; [20]
  Plant response rating, Waterhemp: 100
johnsongrass; [7]
  Johnsongrass plant response rating: 0
johnsongrass; [19]
  Johnsongrass plant response rating: 5
johnsongrass; [9]
  Johnsongrass plant response rating: 85
johnsongrass; [20]
  Plant response rating, Johnsongrass: 40
galium; [7]
  Galium plant response rating: 80
galium; [19]
  Galium plant response rating: 98
galium; [9]
  Galium plant response rating: 100
galium; 62 g ai/ha
  Plant response rating, Galium: 100
Heteranthera limosa
  Plant response rating, Ducksalad: 45
Corn [1]; 125 g ai/ha
  Corn plant response rating (0 to 100 scale): 20
Corn [1]; [10]
  Corn plant response rating: 30
wheat, winter; [7]
  Wheat plant response rating: 0
wheat, winter; [19]
  Wheat plant response rating: 0
wheat, winter; [9]
  Wheat plant response rating: 15
wheat, winter; [20]
  Plant response rating, Wheat: 10
pigweed; 125 g ai/ha
  Pigweed plant response rating (0 to 100 scale): 100
pigweed; [6]
  Pigweed plant response rating: 100
wheat; [18]
  Plant response rating, Wheat: 10
wheat; [6]
  Plant response rating, Wheat: 60
Giant foxtail; [18]
  Plant response rating, Foxtail, Giant: 70
Giant foxtail; [6]
  Plant response rating, Foxtail, Giant: 90

## Clc1cnc(Oc2cccc(Br)c2-n2cc(I)nn2)nc1 [Compound 117]
Corn [2]; 16 g ai/ha, postemergence
  Plant response rating (0 to 100), Corn: 5
Corn [2]; [14]
  Plant response rating, Corn: 5
Corn [2]; [15]
  Plant response rating, Corn: 5
blackgrass; [5]
  Plant response rating, Blackgrass: 40
blackgrass; [6]
  Plant response rating, Blackgrass: 80
Italian ryegrass; 16 g ai/ha, postemergence
  Plant response rating (0 to 100), Ryegrass, Italian: 0
Italian ryegrass; [14]
  Plant response rating, Ryegrass, Italian: 5
Italian ryegrass; [15]
  Plant response rating, Ryegrass, Italian: 0
Heteranthera limosa
  Plant response rating, Ducksalad: 40
pigweed; [5]
  Plant response rating, Pigweed: 100
pigweed; [6]
  Pigweed plant response rating: 100
Kochia [3]; [5]
  Plant response rating, Kochia: 70
Kochia [3]; [6]
  Kochia plant response rating: 100
Kochia [4]; [5]
  Plant response rating, Kochia: 100
Kochia [4]; [6]
  Plant response rating, Kochia: 100
wheat; [6]
  Plant response rating, Wheat: 70
Giant foxtail; [5]
  Plant response rating, Foxtail, Giant: 90
Giant foxtail; [6]
  Plant response rating, Foxtail, Giant: 90

## N#Cc1cnn(-c2c(Br)cccc2Oc2ncc(Cl)cn2)c1 [Compound 140]
Corn [2]; 16 g ai/ha, postemergence
  Plant response rating (0 to 100), Corn: 0
Corn [2]; [14]
  Plant response rating, Corn: 10
Corn [2]; [15]
  Plant response rating, Corn: 10
blackgrass; [12]
  Plant response rating, Blackgrass: 30
blackgrass; [5]
  Blackgrass plant response rating: 70
Italian ryegrass; 16 g ai/ha, postemergence
  Plant response rating (0 to 100), Ryegrass, Italian: 0
Italian ryegrass; [14]
  Plant response rating, Ryegrass, Italian: 0
Italian ryegrass; [15]
  Plant response rating, Ryegrass, Italian: 0
Heteranthera limosa
  Plant response rating, Ducksalad: 80
pigweed; [13]
  Plant response rating, Pigweed: 90
pigweed; [5]
  Plant response rating, Pigweed: 100
Kochia [3]; [13]
  Plant response rating, Kochia: 60
Kochia [3]; [5]
  Plant response rating, Kochia: 100
Kochia [4]; [12]
  Plant response rating, Kochia: 90
Kochia [4]; [5]
  Kochia plant response rating: 100
wheat; [12]
  Plant response rating, Wheat: 0
wheat; [5]
  Wheat plant response rating: 0
Giant foxtail; [12]
  Plant response rating, Foxtail, Giant: 30
Giant foxtail; [5]
  Foxtail, Giant plant response rating: 90
